# In patent publication US5144010A, “Method of producing monoclonal auto-anti-idiotypic antibodies” (The Trustees of Columbia University in the City of New York, priority 1989, dated 1992):
# Target: T1, adenosine receptor (Rattus norvegicus, UniProt P25099)
# T1 sequence (P25099 1-326): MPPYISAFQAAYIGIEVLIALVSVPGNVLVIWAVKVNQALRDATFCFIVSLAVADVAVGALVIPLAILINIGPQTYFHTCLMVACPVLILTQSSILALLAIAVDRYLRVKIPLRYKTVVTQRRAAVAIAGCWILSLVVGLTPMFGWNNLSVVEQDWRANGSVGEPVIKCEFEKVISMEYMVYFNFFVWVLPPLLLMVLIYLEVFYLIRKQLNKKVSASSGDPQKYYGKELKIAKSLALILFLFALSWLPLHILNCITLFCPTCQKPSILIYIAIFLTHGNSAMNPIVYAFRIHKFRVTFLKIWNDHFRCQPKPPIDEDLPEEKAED
# Assay: Binding of monoclonal anti-idiotypic antibodies to adenosine receptor preparation and rabbit anti-CPA
# Conditions: adenosine receptor preparation from rat brain
# Procedure: Protocols for immunization and fusion were essentially identical to that described previously for BisQ in Example 2. Immunization was effected with the RSA conjugate, but the BSA conjugate is just as satisfactory. Screening was conducted with the BSA conjugate and with a specifically purified rabbit antibody raised by immunization with the BSA conjugate. Specifically purified antibody was prepared in a manner analogous to that described for anti-BisQ antibody (1) except that the immunoadsorbent was N^6 -(carboxypentamethylene) adenosine linked to aminohexylsepharose (Pharmacia).
structure (smiles),measurement,value
OC[C@H]1O[C@@H](n2cnc3c(NC4CCCCC4)ncnc32)[C@H](O)[C@@H]1O [N^6 -cyclohexyladenosine],inhibition of the reaction of monoclonal anti-idiotypic antibodies with adenosine receptor,could be inhibited
